Literature values, collected in patent US11535670B2, “Combination therapies of HDAC inhibitors and PD-L1 inhibitors” (HUYABIO International, LLC, priority 2016, dated 2022).

Tests used:
Conditions in all cases: cited from earlier work
HDAC 11 = molecular target: T1, HDAC 11 (Homo sapiens, UniProt Q96DB2)
T1 sequence (Q96DB2 1-347): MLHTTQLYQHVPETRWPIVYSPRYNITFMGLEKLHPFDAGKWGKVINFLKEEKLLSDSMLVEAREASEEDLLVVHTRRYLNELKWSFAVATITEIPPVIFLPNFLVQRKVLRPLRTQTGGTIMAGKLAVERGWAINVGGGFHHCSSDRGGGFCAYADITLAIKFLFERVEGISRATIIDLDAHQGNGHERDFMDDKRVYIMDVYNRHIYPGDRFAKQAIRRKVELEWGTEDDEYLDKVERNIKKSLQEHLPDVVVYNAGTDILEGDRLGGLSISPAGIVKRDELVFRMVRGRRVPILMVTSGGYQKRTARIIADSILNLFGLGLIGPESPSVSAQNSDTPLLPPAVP

HDAC 8 = molecular target: T2, HDAC 8 (Homo sapiens, UniProt Q9BY41)
T2 sequence (Q9BY41 1-377): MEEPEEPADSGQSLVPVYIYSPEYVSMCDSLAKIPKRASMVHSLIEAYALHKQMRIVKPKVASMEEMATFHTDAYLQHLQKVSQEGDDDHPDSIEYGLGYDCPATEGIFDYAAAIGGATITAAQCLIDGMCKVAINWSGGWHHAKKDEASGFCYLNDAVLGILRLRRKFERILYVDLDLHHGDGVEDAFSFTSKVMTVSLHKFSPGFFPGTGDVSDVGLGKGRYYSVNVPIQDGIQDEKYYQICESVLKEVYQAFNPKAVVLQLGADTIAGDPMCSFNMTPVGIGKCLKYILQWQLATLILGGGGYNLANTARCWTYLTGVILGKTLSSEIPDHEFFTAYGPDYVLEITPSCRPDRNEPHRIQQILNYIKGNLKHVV

HDAC 10 = molecular target: T3, HDAC 10 (Homo sapiens, UniProt Q969S8)
T3 sequence (Q969S8 1-669): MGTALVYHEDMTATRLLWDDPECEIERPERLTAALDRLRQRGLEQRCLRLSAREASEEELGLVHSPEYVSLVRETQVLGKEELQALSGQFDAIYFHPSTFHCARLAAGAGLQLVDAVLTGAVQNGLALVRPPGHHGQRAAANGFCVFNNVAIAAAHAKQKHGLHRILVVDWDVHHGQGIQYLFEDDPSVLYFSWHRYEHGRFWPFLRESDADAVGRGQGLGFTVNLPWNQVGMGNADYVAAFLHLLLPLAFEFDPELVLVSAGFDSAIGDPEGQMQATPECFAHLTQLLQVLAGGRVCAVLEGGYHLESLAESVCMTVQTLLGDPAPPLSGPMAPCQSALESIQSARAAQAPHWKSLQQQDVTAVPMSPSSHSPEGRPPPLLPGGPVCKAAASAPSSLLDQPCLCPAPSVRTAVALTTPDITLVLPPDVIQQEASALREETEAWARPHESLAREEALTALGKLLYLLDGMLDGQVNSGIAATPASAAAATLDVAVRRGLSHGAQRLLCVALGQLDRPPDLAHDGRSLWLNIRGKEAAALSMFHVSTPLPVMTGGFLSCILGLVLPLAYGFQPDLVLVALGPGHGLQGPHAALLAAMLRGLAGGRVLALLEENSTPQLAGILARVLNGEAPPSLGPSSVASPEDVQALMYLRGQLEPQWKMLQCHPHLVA

HDAC 3 = HDAC 3 (Homo sapiens, UniProt O15379)
HDAC 1 = HDAC 1 (Homo sapiens, UniProt Q13547)
HDAC 2 = HDAC 2 (Homo sapiens, UniProt Q92769)
Chain of HDAC 2 (Q92769 whole entry): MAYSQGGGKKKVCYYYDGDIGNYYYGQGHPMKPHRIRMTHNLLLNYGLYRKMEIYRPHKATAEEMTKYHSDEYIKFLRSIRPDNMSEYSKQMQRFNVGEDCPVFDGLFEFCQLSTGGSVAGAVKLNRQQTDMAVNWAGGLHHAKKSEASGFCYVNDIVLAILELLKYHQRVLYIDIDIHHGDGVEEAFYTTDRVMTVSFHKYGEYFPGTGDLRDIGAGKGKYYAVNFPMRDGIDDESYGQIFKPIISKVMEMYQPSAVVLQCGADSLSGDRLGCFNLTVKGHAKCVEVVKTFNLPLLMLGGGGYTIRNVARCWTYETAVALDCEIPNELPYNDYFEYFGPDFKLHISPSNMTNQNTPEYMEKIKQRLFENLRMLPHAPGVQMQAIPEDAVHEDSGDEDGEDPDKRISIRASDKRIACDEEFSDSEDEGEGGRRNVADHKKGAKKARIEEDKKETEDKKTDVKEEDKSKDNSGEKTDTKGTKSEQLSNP

Chain of HDAC 3 (O15379 whole entry): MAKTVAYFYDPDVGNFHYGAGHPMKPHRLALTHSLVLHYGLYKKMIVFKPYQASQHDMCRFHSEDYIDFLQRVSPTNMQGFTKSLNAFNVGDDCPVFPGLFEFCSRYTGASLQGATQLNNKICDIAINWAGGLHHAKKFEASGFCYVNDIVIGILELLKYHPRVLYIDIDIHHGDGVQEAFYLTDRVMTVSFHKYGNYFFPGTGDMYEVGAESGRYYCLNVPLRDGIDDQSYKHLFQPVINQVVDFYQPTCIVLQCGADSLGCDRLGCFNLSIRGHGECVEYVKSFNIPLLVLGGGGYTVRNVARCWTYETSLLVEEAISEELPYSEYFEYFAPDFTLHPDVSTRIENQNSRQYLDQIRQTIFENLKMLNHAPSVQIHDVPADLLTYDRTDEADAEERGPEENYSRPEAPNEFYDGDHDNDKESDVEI
Chain of HDAC 3 (Q9Y618 395-489 partner limits assumed): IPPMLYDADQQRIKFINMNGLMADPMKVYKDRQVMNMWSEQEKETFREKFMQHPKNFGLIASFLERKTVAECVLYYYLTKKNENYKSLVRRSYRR
Chain of HDAC 1 (Q13547 whole entry): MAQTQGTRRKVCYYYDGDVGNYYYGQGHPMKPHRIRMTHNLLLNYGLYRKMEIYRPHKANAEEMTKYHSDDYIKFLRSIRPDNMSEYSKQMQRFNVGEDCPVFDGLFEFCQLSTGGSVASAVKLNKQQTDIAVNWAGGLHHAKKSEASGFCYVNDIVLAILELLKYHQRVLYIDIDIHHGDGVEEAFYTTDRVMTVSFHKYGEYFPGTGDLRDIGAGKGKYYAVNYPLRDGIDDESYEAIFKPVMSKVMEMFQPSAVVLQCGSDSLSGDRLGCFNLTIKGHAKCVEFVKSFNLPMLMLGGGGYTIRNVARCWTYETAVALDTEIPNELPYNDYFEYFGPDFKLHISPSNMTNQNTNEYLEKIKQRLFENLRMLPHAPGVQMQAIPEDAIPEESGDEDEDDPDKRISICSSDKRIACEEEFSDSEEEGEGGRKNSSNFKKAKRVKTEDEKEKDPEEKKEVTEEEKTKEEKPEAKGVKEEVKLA

Nc1cc(F)ccc1NC(=O)c1ccc(CNC(=O)/C=C/c2cccnc2)cc1 [HBI-8000, N-(2-amino-4-fluorophenyl)-4-[[[(2E)-1-oxo-3-(3-pyridinyl)-2-propen-1-yl]amino]methyl]benzamide]
activity at HDAC 11 (HDAC 11): has activity
activity at HDAC 11 compared with Entinostat (HDAC 11; versus Entinostat): more active than Entinostat
activity at HDAC 8 (HDAC 8): has activity
activity at HDAC 8 compared with Entinostat (HDAC 8; versus Entinostat): more active than Entinostat
inhibition of HDAC 10 (HDAC 10): low nanomolar concentrations
activity at HDAC 10 compared with Entinostat (HDAC 10; versus Entinostat): more active than Entinostat
inhibition of HDAC 3 (HDAC 3): low nanomolar concentrations
activity at HDAC 3 compared with Entinostat (HDAC 3; versus Entinostat): more active than Entinostat
inhibition of HDAC 1 (HDAC 1): low nanomolar concentrations
activity at HDAC 1 compared with Entinostat (HDAC 1; versus Entinostat): more active than Entinostat
inhibition of HDAC 2 (HDAC 2): low nanomolar concentrations
activity at HDAC 2 compared with Entinostat (HDAC 2; versus Entinostat): more active than Entinostat
